These results are taken from PMC3510438, “The transmembrane tyrosines Y56, Y91 and Y167 play important roles in determining the affinity and transport rate of the rabbit proton-coupled peptide transporter PepT1” (The International Journal of Biochemistry & Cell Biology, 2009).

One experiment concerns the target T1, T58Y-rPepT1 (Oryctolagus cuniculus, UniProt P36836, T58Y).
T1 construct: expressed in transfected cells; host or cells: Xenopus laevis oocytes injected with cRNA
T1 sequence (P36836 1-707 T58Y): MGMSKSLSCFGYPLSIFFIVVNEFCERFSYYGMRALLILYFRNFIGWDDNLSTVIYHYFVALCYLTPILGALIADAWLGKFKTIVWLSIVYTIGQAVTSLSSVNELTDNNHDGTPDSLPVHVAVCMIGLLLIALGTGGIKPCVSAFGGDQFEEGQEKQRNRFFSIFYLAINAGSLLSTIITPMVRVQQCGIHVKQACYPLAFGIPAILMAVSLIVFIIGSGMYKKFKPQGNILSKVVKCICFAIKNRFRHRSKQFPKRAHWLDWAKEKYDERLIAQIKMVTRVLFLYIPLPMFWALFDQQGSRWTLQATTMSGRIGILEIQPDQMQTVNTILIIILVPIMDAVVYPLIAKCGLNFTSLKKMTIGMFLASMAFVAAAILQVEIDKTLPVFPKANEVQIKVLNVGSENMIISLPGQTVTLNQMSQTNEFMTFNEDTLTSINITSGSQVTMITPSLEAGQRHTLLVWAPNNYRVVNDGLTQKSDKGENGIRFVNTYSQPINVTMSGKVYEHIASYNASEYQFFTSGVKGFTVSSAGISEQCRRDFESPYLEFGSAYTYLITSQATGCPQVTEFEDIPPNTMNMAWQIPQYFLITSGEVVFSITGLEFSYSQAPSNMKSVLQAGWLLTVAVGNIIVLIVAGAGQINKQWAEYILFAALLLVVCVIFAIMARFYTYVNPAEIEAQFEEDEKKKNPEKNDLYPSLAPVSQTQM
Nature of the experiment: Uptake of tracer [3H]-D-Phe-L-Gln into Xenopus oocytes. In kind it is cell-based, rabbit. Particulars: both pHout 5.5 and 7.4. On the procedure: (§1) rPepT1 constructs were linearised with XbaI (New England Biolabs, UK) and cRNA generated by in vitro transcription (T7 mMessage mMachine, Ambion, Cambridgeshire, UK). Xenopus laevis oocytes were obtained under MS222 anaesthesia (0.2%, w/v) in accordance with the UK Animals (Scientific Procedures) Act, 1986, and maintained at 18 °C in modified Barth's medium (88 mM NaCl, 1 mM KCl, 0.82 mM MgSO4, 2.4 mM NaHCO3, 0.42 mM CaCl2, 10 mM Hepes, 5 mM sodium pyruvate, 50 μg ml^−1 gentamicin (Fluka, Poole, UK), adjusted to pH 7.6 with 1 M NaOH). Transport measurements were performed at least 72 h after micro-injection of oocytes with 27nl cRNA (1 μg/μl), with medium changed daily.
(§2) Uptake of [^3H]-D-Phe-L-Gln (17.4 Ci/mmole, custom synthesised, Cambridge Research Biochemicals, Stockton-on-Tees, UK) was performed as previously described ([Meredith, 2004]). Briefly, 5 oocytes were incubated in 100 μl of uptake medium (95 mM NaCl, 2 mM KCl, 1 mM CaCl2, 0.42 mM MgCl2, 10 mM Tris/Hepes pH 7.4 or Tris/Mes pH 5.5) with tracer (0.4 μM) [^3H]-D-Phe-L-Gln. After incubation, the oocytes were washed sequentially five times in 1 ml of ice-cold 120 mM NaCl solution, lysed individually with 100 μl 2% (w/v) SDS and liquid scintillation counted. As a control non-injected oocytes were also incubated in uptake medium with D-Phe-L-Gln as above.

In the next experiment the target is T2, wild-type rPepT1 (Oryctolagus cuniculus, UniProt P36836).
T2 construct: expressed in transfected cells; host or cells: Xenopus laevis oocytes injected with cRNA
T2 sequence (P36836 1-707): T1 sequence (P36836 1-707 T58Y) with Y58T
Described as above. In kind it is cell-based, rabbit. Particulars: 0.4 μM tracer; pHout 5.5; 1 h; non-injected control subtracted. On the procedure: as §1, §2

Positions count from the first letter of the chain named.

For the substance [^3H]-D-Phe-L-Gln, the “reduction of transport function compared to the wild-type” value at T58Y-rPepT1 is greater than 70%. Further, at wild-type rPepT1, the uptake is reported as 342 ± 37 fmol peptide/(oocyte h).
